{
  "source": "patent US20250205344A1",
  "about": "“2,4-DIOXOTETRAHYDROPYRIMIDINYL DERATIVES AS DEGRONS IN PROTACS” (GLAXOSMITHKLINE INTELLECTUAL PROPERTY DEVELOPMENT LIMITED, priority 2022, published 2025)",
  "molecular_target": "T1, Androgen Receptor (Homo sapiens, UniProt P10275, T878A)",
  "T1 construct": "the AR gene was modified, using CRISPR/Cas9 editing, so the expressed AR protein included an 11 amino acid HiBiT tag; endogenous in cells; host or cells: clonal LnCaP-derived line, AR gene edited by CRISPR/Cas9",
  "T1 sequence (P10275 whole entry T878A)": "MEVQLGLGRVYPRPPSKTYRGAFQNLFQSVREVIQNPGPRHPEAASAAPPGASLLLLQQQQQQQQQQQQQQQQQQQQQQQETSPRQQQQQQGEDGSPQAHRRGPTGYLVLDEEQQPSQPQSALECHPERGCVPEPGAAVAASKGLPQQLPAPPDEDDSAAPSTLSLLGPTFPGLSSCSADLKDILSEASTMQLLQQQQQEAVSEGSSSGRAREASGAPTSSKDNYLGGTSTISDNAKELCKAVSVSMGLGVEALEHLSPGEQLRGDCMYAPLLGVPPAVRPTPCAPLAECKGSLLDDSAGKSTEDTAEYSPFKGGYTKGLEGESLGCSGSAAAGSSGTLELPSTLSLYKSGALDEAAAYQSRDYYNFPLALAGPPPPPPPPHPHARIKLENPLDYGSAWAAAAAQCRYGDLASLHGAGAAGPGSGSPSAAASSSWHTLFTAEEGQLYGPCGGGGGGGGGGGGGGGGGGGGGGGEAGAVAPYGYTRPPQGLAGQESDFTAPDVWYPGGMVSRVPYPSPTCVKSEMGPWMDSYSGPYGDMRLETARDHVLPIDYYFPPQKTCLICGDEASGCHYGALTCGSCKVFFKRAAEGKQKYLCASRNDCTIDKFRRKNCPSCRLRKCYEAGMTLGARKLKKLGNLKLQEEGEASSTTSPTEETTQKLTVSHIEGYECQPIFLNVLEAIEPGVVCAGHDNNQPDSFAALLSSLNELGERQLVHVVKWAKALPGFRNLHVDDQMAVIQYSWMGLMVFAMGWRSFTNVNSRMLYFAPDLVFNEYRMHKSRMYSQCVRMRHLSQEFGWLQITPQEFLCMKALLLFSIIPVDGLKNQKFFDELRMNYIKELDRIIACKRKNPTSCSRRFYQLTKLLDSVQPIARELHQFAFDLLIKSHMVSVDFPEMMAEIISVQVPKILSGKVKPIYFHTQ",
  "T1 sequence (Q96SW2 whole entry partner)": "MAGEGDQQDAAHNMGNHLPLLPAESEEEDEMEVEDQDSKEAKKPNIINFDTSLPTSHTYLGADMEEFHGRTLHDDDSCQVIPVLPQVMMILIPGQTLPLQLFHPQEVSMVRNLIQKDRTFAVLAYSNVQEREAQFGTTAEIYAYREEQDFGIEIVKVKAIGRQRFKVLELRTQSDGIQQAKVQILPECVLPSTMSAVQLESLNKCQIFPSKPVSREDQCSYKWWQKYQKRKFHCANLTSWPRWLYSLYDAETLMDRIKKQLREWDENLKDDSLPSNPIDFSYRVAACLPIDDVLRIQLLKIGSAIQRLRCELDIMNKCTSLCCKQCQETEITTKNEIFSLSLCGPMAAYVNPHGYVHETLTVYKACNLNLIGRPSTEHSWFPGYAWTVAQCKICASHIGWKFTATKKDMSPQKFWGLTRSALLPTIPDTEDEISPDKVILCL",
  "T1 sequence (Q16531 whole entry partner)": "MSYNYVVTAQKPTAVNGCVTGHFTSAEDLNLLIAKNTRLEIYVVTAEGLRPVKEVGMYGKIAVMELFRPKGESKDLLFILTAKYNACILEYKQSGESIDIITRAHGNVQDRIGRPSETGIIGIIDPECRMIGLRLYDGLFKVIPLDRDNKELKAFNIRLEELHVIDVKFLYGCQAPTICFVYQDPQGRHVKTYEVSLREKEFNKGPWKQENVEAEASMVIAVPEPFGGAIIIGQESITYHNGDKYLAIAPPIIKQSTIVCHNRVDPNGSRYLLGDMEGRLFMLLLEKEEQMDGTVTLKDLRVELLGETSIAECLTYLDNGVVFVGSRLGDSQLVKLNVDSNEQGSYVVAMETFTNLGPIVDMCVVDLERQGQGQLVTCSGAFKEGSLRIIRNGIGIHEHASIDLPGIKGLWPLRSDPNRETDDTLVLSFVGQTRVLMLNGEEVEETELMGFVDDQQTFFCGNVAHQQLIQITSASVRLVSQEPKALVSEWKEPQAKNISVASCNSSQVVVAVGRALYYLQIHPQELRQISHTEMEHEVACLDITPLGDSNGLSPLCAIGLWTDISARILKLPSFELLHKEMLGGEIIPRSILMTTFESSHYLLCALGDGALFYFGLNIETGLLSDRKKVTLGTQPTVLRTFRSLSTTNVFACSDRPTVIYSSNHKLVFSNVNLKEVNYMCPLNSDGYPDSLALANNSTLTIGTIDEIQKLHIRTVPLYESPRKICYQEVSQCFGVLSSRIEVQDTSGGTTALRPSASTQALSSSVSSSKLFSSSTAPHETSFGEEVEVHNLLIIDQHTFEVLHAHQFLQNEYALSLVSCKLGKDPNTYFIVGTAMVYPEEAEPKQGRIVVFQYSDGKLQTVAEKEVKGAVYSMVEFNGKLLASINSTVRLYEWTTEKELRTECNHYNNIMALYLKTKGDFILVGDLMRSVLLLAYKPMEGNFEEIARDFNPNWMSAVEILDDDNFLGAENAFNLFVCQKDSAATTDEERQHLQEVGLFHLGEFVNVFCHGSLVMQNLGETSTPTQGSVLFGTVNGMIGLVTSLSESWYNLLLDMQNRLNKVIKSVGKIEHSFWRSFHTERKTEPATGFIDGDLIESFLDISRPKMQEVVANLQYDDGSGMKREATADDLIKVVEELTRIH",
  "test": "Androgen Receptor Degradation Assay (Nano-Glo HiBiT)",
  "assay_type": "cell-based",
  "settings": "LNCaP, 18 h, HiBiT-tagged AR in human LnCaP cells, read-out: mean asymptote max",
  "how_it_was_run": "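LnCaP cells with CRISPR-knocked-in N-terminal HiBiT-tagged AR (10,000/well) treated 18 h at 37 °C with PROTACs over 11 threefold concentrations; lytic HiBiT luminescence normalised to DMSO (0%) and cell-free (100%) controls. Relative DC50 = 4-parameter fit inflection; absolute DC50 = 50% degradation interpolation; Dmax = maximum observed degradation.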",
  "note": "Where a name gives a salt, the structure may show the parent alone.",
  "data": [
    {"smiles": "N#Cc1ccc(O[C@H]2CC[C@H](NC(=O)c3ccc(N4CCC(CN5CCC(n6ccc7c(N8CCC(=O)NC8=O)ccnc76)CC5)CC4)nn3)CC2)cc1C(F)(F)F", "note": "[EAR212, N-((1r,4r)-4-(4-Cyano-3-(trifluoromethyl)phenoxy)cyclohexyl)-6-(4-((4-(4-(2,4-dioxotetrahydropyrimidin-1(2H)-yl)-1H-pyrrolo[2,3-b]pyridin-1-yl)piperidin-1-yl)methyl)piperidin-1-yl)pyridazine-3-carboxamide]", "values": [
      {"measurement": "Dmax", "result": "≥ 50", "unit": "%"}
    ]},
    {"smiles": "CC1(CN2CCC(n3ccc4c(N5CCC(=O)NC5=O)cccc43)CC2)CCN(c2ccc(C(=O)N[C@H]3CC[C@H](Oc4ccc(C#N)c(Cl)c4)CC3)nn2)CC1", "note": "[EAR213, N-((1r,4r)-4-(3-Chloro-4-cyanophenoxy)cyclohexyl)-6-(4-((4-(4-(2,4-dioxotetrahydropyrimidin-1(2H)-yl)-1H-indol-1-yl)piperidin-1-yl)methyl)-4-methylpiperidin-1-yl)pyridazine-3-carboxamide]", "values": [
      {"measurement": "Dmax", "result": "≥ 50", "unit": "%"}
    ]},
    {"smiles": "CN(c1ccc(C#N)c(Cl)c1)[C@H]1CC[C@H](NC(=O)c2ccc(N3CCC(CN4CCC(n5ccc6c(N7CCC(=O)NC7=O)ncnc65)CC4)CC3)nn2)CC1", "note": "[EAR214, N-((1r,4r)-4-((3-Chloro-4-cyanophenyl)(methyl)amino)cyclohexyl)-6-(4-((4-(4-(2,4-dioxotetrahydropyrimidin-1(2H)-yl)-7H-pyrrolo[2,3-d]pyrimidin-7-yl)piperidin-1-yl)methyl)piperidin-1-yl)pyridazine-3-carboxamide hydrochloride]", "values": [
      {"measurement": "Dmax", "result": "≥ 50", "unit": "%"}
    ]},
    {"smiles": "N#Cc1ccc(O[C@H]2CC[C@H](NC(=O)c3cnc(N4CCC(CN5CCC(n6ncc7c(N8CCC(=O)NC8=O)cc(F)cc76)CC5)CC4)cn3)CC2)cc1Cl", "note": "[EAR217, N-((1r,4r)-4-(3-chloro-4-cyanophenoxy)cyclohexyl)-5-(4-((4-(4-(2,4-dioxotetrahydropyrimidin-1(2H)-yl)-6-fluoro-1H-indazol-1-yl)piperidin-1-yl)methyl)piperidin-1-yl)pyrazine-2-carboxamide hydrochloride]", "values": [
      {"measurement": "Dmax", "result": "≥ 50", "unit": "%"}
    ]},
    {"smiles": "N#Cc1ccc(O[C@H]2CC[C@H](NC(=O)c3ccc(N4CC5(CCC(CN6CCC(n7ncc8c(N9CCC(=O)NC9=O)cccc87)CC6)CO5)C4)nn3)CC2)cc1Cl", "note": "(stereo partly drawn) [EAR218, N-((1r,4r)-4-(3-Chloro-4-cyanophenoxy)cyclohexyl)-6-(7-((4-(4-(2,4-dioxotetrahydropyrimidin-1(2H)-yl)-1H-indazol-1-yl)piperidin-1-yl)methyl)-5-oxa-2-azaspiro[3.5]nonan-2-yl)pyridazine-3-carboxamide]", "values": [
      {"measurement": "Dmax", "result": "≥ 50", "unit": "%"}
    ]},
    {"smiles": "N#Cc1ccc(O[C@H]2CC[C@H](NC(=O)c3ccc(N4CC5CC(CN6CCC(n7ncc8c(N9CCC(=O)NC9=O)cccc87)CC6)(C5)C4)nn3)CC2)cc1Cl", "note": "[EAR219, N-((1r,4r)-4-(3-chloro-4-cyanophenoxy)cyclohexyl)-6-(1-((4-(4-(2,4-dioxotetrahydropyrimidin-1(2H)-yl)-1H-indazol-1-yl)piperidin-1-yl)methyl)-3-azabicyclo[3.1.1]heptan-3-yl)pyridazine-3-carboxamide]", "values": [
      {"measurement": "Dmax", "result": "≥ 50", "unit": "%"}
    ]},
    {"smiles": "CN(CCCCCN1CCC(n2ncc3c(N4CCC(=O)NC4=O)cccc32)CC1)c1ccc(C(=O)N[C@H]2CC[C@H](Oc3ccc(C#N)c(Cl)c3)CC2)nn1", "note": "[EAR220, N-((1r,4r)-4-(3-chloro-4-cyanophenoxy)cyclohexyl)-6-((5-(4-(4-(2,4-dioxotetrahydropyrimidin-1(2H)-yl)-1H-indazol-1-yl)piperidin-1-yl)pentyl)(methyl)amino)pyridazine-3-carboxamide]", "values": [
      {"measurement": "Dmax", "result": "≥ 50", "unit": "%"}
    ]},
    {"smiles": "N#Cc1ccc(O[C@H]2CC[C@H](NC(=O)c3ccc(N4CCC(C#N)(CCN5CCC(n6ncc7c(N8CCC(=O)NC8=O)cccc76)CC5)CC4)nn3)CC2)cc1Cl", "note": "[EAR221, N-((1r,4r)-4-(3-chloro-4-cyanophenoxy)cyclohexyl)-6-(4-cyano-4-(2-(4-(4-(2,4-dioxotetrahydropyrimidin-1(2H)-yl)-1H-indazol-1-yl)piperidin-1-yl)ethyl)piperidin-1-yl)pyridazine-3-carboxamide]", "values": [
      {"measurement": "Dmax", "result": "≥ 50", "unit": "%"}
    ]},
    {"smiles": "CC1(C)CCN(c2ccc(C(=O)N[C@H]3CC[C@H](Oc4ccc(C#N)c(Cl)c4)CC3)nn2)CC1CN1CCC(n2ncc3c(N4CCC(=O)NC4=O)cccc32)CC1", "note": "(stereo partly drawn) [EAR222, N-((1r,4r)-4-(3-chloro-4-cyanophenoxy)cyclohexyl)-6-(3-((4-(4-(2,4-dioxotetrahydropyrimidin-1(2H)-yl)-1H-indazol-1-yl)piperidin-1-yl)methyl)-4,4-dimethylpiperidin-1-yl)pyridazine-3-carboxamide]", "values": [
      {"measurement": "Dmax", "result": "≥ 50", "unit": "%"}
    ]},
    {"smiles": "CC1(C)CC(CN2CCC(n3ncc4c(N5CCC(=O)NC5=O)cccc43)CC2)CN(c2ccc(C(=O)N[C@H]3CC[C@H](Oc4ccc(C#N)c(Cl)c4)CC3)nn2)C1", "note": "(stereo partly drawn) [EAR223, N-((1r,4r)-4-(3-chloro-4-cyanophenoxy)cyclohexyl)-6-(5-((4-(4-(2,4-dioxotetrahydropyrimidin-1(2H)-yl)-1H-indazol-1-yl)piperidin-1-yl)methyl)-3,3-dimethylpiperidin-1-yl)pyridazine-3-carboxamide]", "values": [
      {"measurement": "Dmax", "result": "≥ 50", "unit": "%"}
    ]},
    {"smiles": "N#Cc1ccc(O[C@H]2CC[C@H](NC(=O)c3ccc(N4CC5(CC(CN6CCC(n7ncc8c(N9CCC(=O)NC9=O)cccc87)CC6)C5)C4)nn3)CC2)cc1Cl", "note": "[EAR224, N-((1r,4r)-4-(3-chloro-4-cyanophenoxy)cyclohexyl)-6-(6-((4-(4-(2,4-dioxotetrahydropyrimidin-1(2H)-yl)-1H-indazol-1-yl)piperidin-1-yl)methyl)-2-azaspiro[3.3]heptan-2-yl)pyridazine-3-carboxamide]", "values": [
      {"measurement": "Dmax", "result": "≥ 50", "unit": "%"}
    ]},
    {"smiles": "N#Cc1ccc(O[C@H]2CC[C@H](NC(=O)c3ccc(N4CC5(CCC(CN6CCC(n7ncc8c(N9CCC(=O)NC9=O)cccc87)CC6)CC5)C4)nn3)CC2)cc1Cl", "note": "[EAR225, N-((1r,4r)-4-(3-chloro-4-cyanophenoxy)cyclohexyl)-6-(7-((4-(4-(2,4-dioxotetrahydropyrimidin-1(2H)-yl)-1H-indazol-1-yl)piperidin-1-yl)methyl)-2-azaspiro[3.5]nonan-2-yl)pyridazine-3-carboxamide]", "values": [
      {"measurement": "Dmax", "result": "≥ 50", "unit": "%"}
    ]},
    {"smiles": "N#Cc1ccc(O[C@H]2CC[C@H](NC(=O)c3ccc(N4CC5CCC(C4)C5CN4CCC(n5ncc6c(N7CCC(=O)NC7=O)cccc65)CC4)nn3)CC2)cc1Cl", "note": "(stereo partly drawn) [EAR226, N-((1r,4r)-4-(3-chloro-4-cyanophenoxy)cyclohexyl)-6-(8-((4-(4-(2,4-dioxotetrahydropyrimidin-1(2H)-yl)-1H-indazol-1-yl)piperidin-1-yl)methyl)-3-azabicyclo[3.2.1]octan-3-yl)pyridazine-3-carboxamide]", "values": [
      {"measurement": "Dmax", "result": "≥ 50", "unit": "%"}
    ]},
    {"smiles": "C[C@H]1CN(c2ccc(C(=O)N[C@H]3CC[C@H](Oc4ccc(C#N)c(Cl)c4)CC3)nn2)CC[C@H]1CN1CCC(n2ncc3c(N4CCC(=O)NC4=O)cccc32)CC1", "note": "[EAR227, N-((1r,4R)-4-(3-chloro-4-cyanophenoxy)cyclohexyl)-6-((3R,4R)-4-((4-(4-(2,4-dioxotetrahydropyrimidin-1(2H)-yl)-1H-indazol-1-yl)piperidin-1-yl)methyl)-3-methylpiperidin-1-yl)pyridazine-3-carboxamide]", "values": [
      {"measurement": "Dmax", "result": "≥ 50", "unit": "%"}
    ]},
    {"smiles": "N#Cc1ccc(O[C@H]2CC[C@H](NC(=O)c3ccc(N4CC5CC(C4)C5CN4CCC(n5ncc6c(N7CCC(=O)NC7=O)cccc65)CC4)nn3)CC2)cc1Cl", "note": "(stereo partly drawn) [EAR228, N-((1r,4r)-4-(3-chloro-4-cyanophenoxy)cyclohexyl)-6-(6-((4-(4-(2,4-dioxotetrahydropyrimidin-1(2H)-yl)-1H-indazol-1-yl)piperidin-1-yl)methyl)-3-azabicyclo[3.1.1]heptan-3-yl)pyridazine-3-carboxamide]", "values": [
      {"measurement": "Dmax", "result": "≥ 50", "unit": "%"}
    ]}
  ]
}
